SMILES strings stand for the structures.

This assay has as its system LTD4 (contractile responses of guinea-pig trachea). The experiment in a line: LTD4 antagonism in guinea-pig trachea (in vitro test, isolated tracheal spiral strip). The format is cell-based. As to conditions: Cavia porcellus, 0.5 h; test compound concentration 10^6 g/ml [sic], added 30 min prior to LTD4; isolated male guinea-pig trachea; vs paired control. As to the method: LTD4 antagonism in guinea-pig trachea
Antagonism for LTD4 was determined in isolated male guinea-pig (300-400 g) trachea prepared as spiral strip. Tracheal preparations were suspended under 1 g tension in 10 ml organ baths containing 5 μM of indomethacin and they were incubated for 1 hour prior to used. Contractile responses to LTD4 (2×10^8 g/ml) were obtained after the maximal response to histamine (10^4 M). Test compounds dissolved in 100% dimethyl sulfoxide were added to the organ baths (final concentration of 10^6 g/ml) 30 min prior to LTD4 addition, and then contractile responses to LTD4 were compared with those of control which was obtained from a paired trachea in the absence of test compounds. LTD-induced contractions were expressed as a percentage of the maximal response to histamine. The antagonism was determined as follows:
Antagonism (%)=(1.0-% contraction in test/% contraction in […]
The compound `CCn1ncc(NCc2ccco2)c(Br)c1=O` [Compound No. 22, 2Ethyl-4-bromo-5-(2-furanylmethylamino)-3(2H)pyridazinone] yielded an inhibition at 1 µg/mL of 39%.
`CCOc1n[nH]c(=O)c(Cl)c1NCc1ccc(OC)c2ccccc12` [Compound No. 31]: the inhibition at 1 µg/mL came to 95%.
In turn, `CCn1nc(OC)c(NCc2ccc(OC)c3ccccc23)c(Cl)c1=O` [compound 38] registered an inhibition at 1 µg/mL of 43%.
For `COc1ccc(CNc2c(Cl)n[nH]c(=O)c2Cl)c2ccccc12` [Compound No. 34, 4,6-Dichloro-5-(4-methoxy-1-naphthylmethylamino)-3(2H)pyridazinone], 1 µg/mL produced 99% inhibition.
Turning to `COc1ccc(CNc2cn[nH]c(=O)c2Cl)c2ccccc12` [Compound No. 5, 4-Chloro-5-(4-methoxy-1-naphthylmethylamino)-3(2H)pyridazinone], testing at 1 µg/mL gave an inhibition of 79%.
Compound `CCn1ncc(NCc2c(OC)ccc3ccccc23)c(Br)c1=O` [compound 25] gave an inhibition at 1 µg/mL of 50%.
Consider `CCCCOc1n[nH]c(=O)c(Cl)c1NCc1ccc(Cl)nc1` [compound 57], for which the inhibition at 1 µg/mL came to 69%.
As to `CCn1ncc(NCc2cccc3ccccc23)c(Br)c1=O` [compound 23], the inhibition at 1 µg/mL stood at 57%.
In turn, `COc1ccc(CNc2c(OC(C)C)n[nH]c(=O)c2Cl)c2ccccc12` [Compound No. 32, 4-Chloro-5-(4-methoxy-1-naphthylmethylamino)-6-i-propoxy-3(2H)pyridazinone] returned an inhibition at 1 µg/mL of 50%.
In turn, `CCCc1c(OCC(O)COc2ccc3c(=O)cc(C(=O)O)oc3c2CCC)ccc(C(C)=O)c1O` (centres unmarked) [FPL-55712, reference compound] registered an inhibition at 1 µg/mL of 94%.
`CCn1ncc(NCc2ccc3ccccc3c2)c(Br)c1=O` [compound 24] yielded an inhibition at 1 µg/mL of 67%.
The result for `CCCCCCOc1n[nH]c(=O)c(Cl)c1NCc1cccnc1` [compound 60] reads 96%; that for `COc1ccc(CNc2cn[nH]c(=O)c2Br)c2ccccc12` [Compound No. 16], 74%; that for `COc1ccc(CNc2c([N+](=O)[O-])n[nH]c(=O)c2Cl)c2ccccc12` [Compound No. 30, 4-Chloro-5-(4-methoxy-1-naphthylmethylamino)-6-nitro-3(2H)pyridazinone], 50%.

A word on the inhibition: it is the percentage by which the read-out fell short of the control. Read a low inhibition as a weak effect.

For the origin of these results see patent US5011839A, “3(2H)pyridazinones for antagonistic agent against srs-a” (Nissan Chemical Industries Ltd., priority 1988, dated 1991).
